Source: PubChem BioAssay (NCI)
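These data come from cells grown in 96-well plates and exposed to compound for 48 hours at five concentrations. TGI is the concentration that stops growth completely.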

How the values were obtained:
Assay in all cases: NCI anticancer screen, dose series, 48 h
[1] = system: 786-0 renal
[2] = system: A498 renal
[3] = system: A549 NSCLC
[4] = system: ACHN renal
[5] = system: CCRF-CEM leukemia
[6] = system: DLD-1 colon
[7] = system: DMS 114 small cell lung
[8] = system: DMS 273 small cell lung
[9] = system: EKVX NSCLC
[10] = system: HCC-2998 colon
[11] = system: HCT-116 colon
[12] = system: HCT-15 colon
[13] = system: HL-60(TB) leukemia
[14] = system: HOP-62 NSCLC
[15] = system: HOP-92 NSCLC
[16] = system: HT29 colon
[17] = system: IGROV1 ovarian
[18] = system: K-562 leukemia
[19] = system: KM12 colon
[20] = system: KM20L2 colon
[21] = system: LOX IMVI melanoma
[22] = system: LXFL 529 NSCLC
[23] = system: M14 melanoma
[24] = system: M19-MEL melanoma
[25] = system: MALME-3M melanoma
[26] = system: MOLT-4 leukemia
[27] = system: NCI-H226 lung
[28] = system: NCI-H23 lung
[29] = system: NCI-H460 lung
[30] = system: NCI-H522 lung
[31] = system: OVCAR-3 ovarian
[32] = system: OVCAR-4 ovarian
[33] = system: OVCAR-5 ovarian
[34] = system: OVCAR-8 ovarian
[35] = system: RPMI-8226 leukemia
[36] = system: RXF 393 renal
[37] = system: SF-268 CNS
[38] = system: SF-295 CNS
[39] = system: SF-539 CNS
[40] = system: SK-MEL-2 melanoma
[41] = system: SK-MEL-28 melanoma
[42] = system: SK-MEL-5 melanoma
[43] = system: SN12C renal
[44] = system: SNB-19 CNS
[45] = system: SNB-75 CNS
[46] = system: SNB-78 CNS
[47] = system: SR leukemia
[48] = system: SW-620 colon
[49] = system: TK-10 renal
[50] = system: U251 CNS
[51] = system: UACC-257 melanoma
[52] = system: UACC-62 melanoma
[53] = system: UO-31 renal
[54] = system: XF 498 CNS
[55] = system: BT-549 breast
[56] = system: CAKI-1 renal
[57] = system: COLO 205 colon
[58] = system: DU-145 prostate
[59] = system: HS 578T breast
[60] = system: MCF7 breast
[61] = system: MDA-MB-231 breast
[62] = system: MDA-MB-435
[63] = system: MDA-N
[64] = system: NCI/ADR-RES ovarian
[65] = system: PC-3 prostate
[66] = system: SK-OV-3 ovarian
[67] = system: T-47D breast

CC1=C(C(=O)NCc2ccccc2)C(c2ccc(Cl)c(Cl)c2)C(C(=O)NCc2ccccc2)=C(C)N1
TGI [1]: > 100 µM
TGI [2]: > 100 µM
TGI [3]: > 100 µM
TGI [4]: > 100 µM
TGI [5]: > 100 µM
TGI [6]: > 100 µM
TGI [7]: > 100 µM
TGI [8]: > 100 µM
TGI [9]: > 100 µM
TGI [10]: > 100 µM
TGI [11]: > 100 µM
TGI [12]: > 100 µM
TGI [13]: > 100 µM
TGI [14]: > 100 µM
TGI [15]: > 100 µM
TGI [16]: > 100 µM
TGI [17]: > 100 µM
TGI [18]: > 100 µM
TGI [19]: > 100 µM
TGI [20]: > 100 µM
TGI [21]: > 100 µM
TGI [22]: > 100 µM
TGI [23]: > 100 µM
TGI [24]: > 100 µM
TGI [25]: > 100 µM
TGI [26]: > 100 µM
TGI [27]: > 100 µM
TGI [28]: > 100 µM
TGI [29]: > 100 µM
TGI [30]: > 100 µM
TGI [31]: > 100 µM
TGI [32]: > 100 µM
TGI [33]: > 100 µM
TGI [34]: > 100 µM
TGI [35]: > 100 µM
TGI [36]: > 100 µM
TGI [37]: > 100 µM
TGI [38]: > 100 µM
TGI [39]: > 100 µM
TGI [40]: > 100 µM
TGI [41]: > 100 µM
TGI [42]: > 100 µM
TGI [43]: > 100 µM
TGI [44]: > 100 µM
TGI [45]: > 100 µM
TGI [46]: > 100 µM
TGI [47]: > 100 µM
TGI [48]: > 100 µM
TGI [49]: > 100 µM
TGI [50]: > 100 µM
TGI [51]: > 100 µM
TGI [52]: > 100 µM
TGI [53]: > 100 µM
TGI [54]: > 100 µM

COc1cc2cc(C(=O)N3CC(CCl)c4ccc([N+](C)(C)Cc5ccc([N+](=O)[O-])cc5)cc43)[nH]c2c(OC)c1OC (stereo unspecified)
TGI [1]: 6.54 µM
TGI [2]: 3.5 µM
TGI [3]: > 100 µM
TGI [4]: 7.12 µM
TGI [55]: 35.6 µM
TGI [56]: 5.64 µM
TGI [5]: 7.01 µM
TGI [57]: 14.2 µM
TGI [58]: 10.8 µM
TGI [9]: 29.3 µM
TGI [10]: 2.95 µM
TGI [12]: 31 µM
TGI [13]: 5.55 µM
TGI [14]: > 100 µM
TGI [15]: 6.58 µM
TGI [59]: 47 µM
TGI [16]: 5.83 µM
TGI [18]: 5.61 µM
TGI [19]: 5.46 µM
TGI [23]: 40.5 µM
TGI [25]: 7.42 µM
TGI [60]: > 100 µM
TGI [61]: 46.6 µM
TGI [62]: 24 µM
TGI [63]: 16.5 µM
TGI [26]: 6.44 µM
TGI [27]: 15.4 µM
TGI [28]: 3.52 µM
TGI [29]: 4 µM
TGI [30]: 3.47 µM
TGI [64]: 4.17 µM
TGI [31]: 7.16 µM
TGI [32]: 13.6 µM
TGI [33]: > 100 µM
TGI [34]: 4.69 µM
TGI [65]: 16.3 µM
TGI [35]: 4.62 µM
TGI [36]: 3.09 µM
TGI [37]: 56.7 µM
TGI [38]: 15.3 µM
TGI [39]: 5.64 µM
TGI [40]: 5.26 µM
TGI [41]: 26.5 µM
TGI [42]: 3.31 µM
TGI [66]: 9.64 µM
TGI [43]: 31 µM
TGI [44]: 60 µM
TGI [45]: 11.1 µM
TGI [47]: 2.31 µM
TGI [48]: 6.18 µM
TGI [67]: 66.2 µM
TGI [50]: 7.36 µM
TGI [52]: 4.69 µM

C=C1C(=O)O[C@H]2C1C[C@@H](O)/C(C)=C/CC[C@@]1(C)O[C@H]21 (stereo partly specified)
TGI [1]: > 48.2 µM
TGI [2]: 63.1 µM
TGI [3]: > 91 µM
TGI [4]: 37.7 µM
TGI [55]: > 44.5 µM
TGI [56]: 12.5 µM
TGI [5]: 12.6 µM
TGI [57]: > 36.9 µM
TGI [58]: > 56 µM
TGI [9]: 38.9 µM
TGI [10]: > 52.6 µM
TGI [11]: 23.6 µM
TGI [12]: 58.8 µM
TGI [13]: 9.27 µM
TGI [14]: > 95.6 µM
TGI [15]: 22.9 µM
TGI [59]: > 89.5 µM
TGI [16]: > 57 µM
TGI [17]: > 43.8 µM
TGI [18]: 28.8 µM
TGI [19]: > 100 µM
TGI [21]: 26.6 µM
TGI [23]: 37.4 µM
TGI [25]: 16.9 µM
TGI [60]: 35 µM
TGI [61]: 44.8 µM
TGI [62]: 23.7 µM
TGI [63]: > 50.9 µM
TGI [26]: 22.3 µM
TGI [27]: > 96.4 µM
TGI [28]: 31.9 µM
TGI [29]: > 68.5 µM
TGI [30]: 15.1 µM
TGI [64]: > 87.9 µM
TGI [31]: 21.5 µM
TGI [32]: > 43.4 µM
TGI [33]: > 53.8 µM
TGI [34]: 45.1 µM
TGI [65]: > 49.3 µM
TGI [35]: 25.8 µM
TGI [36]: 26.5 µM
TGI [37]: > 100 µM
TGI [38]: > 100 µM
TGI [39]: 54.3 µM
TGI [40]: > 54.8 µM
TGI [41]: 33.7 µM
TGI [42]: 49.1 µM
TGI [66]: > 82.7 µM
TGI [43]: > 55.9 µM
TGI [44]: > 100 µM
TGI [45]: 34.7 µM
TGI [47]: 44.9 µM
TGI [48]: 17.9 µM
TGI [67]: 50 µM
TGI [49]: 33.4 µM
TGI [50]: > 53.2 µM
TGI [51]: 46.8 µM
TGI [52]: > 54.2 µM
TGI [53]: > 49.6 µM
